Earlier results in patent US20040023948A1, “Fast-dispersing dosage form containing 5-HT1 agonists” (priority 1997, published 2004).

Conditions: Vogel conflict test in rats; Gammans et al. 1986

c1cnc(N2CCNCC2)nc1 [Example 1-PP, 1-pyrimidinylpiperazine]
activity relative to unchanged buspirone: ≤ 20%
